# Laboratory results reported in ChEMBL document CHEMBL4311946, “Mechanistic Insight on the Mode of Action of Colletoic Acid” (J Med Chem, 2019).
# Calls of active or inactive are those of the source. The rule behind the calls is not given here.
# Tests used:
# 3T3-L1 [1] = experiment: Anti-adipogenic activity in differentiated mouse 3T3L1 cells assessed as reduction in Glut4 mRNA expression at 50 to 100 uM measured after 2 to 7 days by SYBR green dye-based qRT-PCR analysis; type: functional, cell-based
# 3T3-L1 [2] = experiment: Anti-adipogenic activity in differentiated mouse 3T3L1 cells assessed as reduction in 11beta-HSD1 expression at 50 uM measured on day 3 by Western blot analysis; type: functional, cell-based
# 3T3-L1 [3] = experiment: Cytotoxicity against mouse 3T3L1 cells measured after 72 hrs by celltiter-glo luminescent cell viability assay; type: ADME, cell-based; settings: 3T3-L1, 72 h
# Homo sapiens [4] = species: Homo sapiens; experiment: (§1) Anti-adipogenic activity in human visceral preadipocytes assessed as reduction in pre-adipocyte differentiation into matured adipocytes at 50 uM incubated for 48 hrs under induction medium containing hydrocortisone hemi-succinate prior to compound washout followed by shifting to differentiation medium containing compound supplemented with fresh medium every 48 to 72 hrs for 9 to 14 days by oil red O staining-based microscopic analysis; type: functional, cell-based
# 3T3-L1 [5] = experiment: Anti-adipogenic activity in mouse 3T3L1 preadipocytes assessed as restoration of cell morphology at 50 uM incubated for 48 hrs under induction medium containing dehydrocorticosterone/cortisone followed by shifting to differentiation medium and measured after 7 days by mitotracker red/lipidtox green staining-based confocal microscopic analysis; type: functional
# 3T3-L1 [6] = experiment: Anti-adipogenic activity in differentiated mouse 3T3L1 cells assessed as reduction in ACACB mRNA expression at 50 to 100 uM measured after 2 to 7 days by SYBR green dye-based qRT-PCR analysis; type: functional, cell-based
# 3T3-L1 [7] = experiment: Anti-adipogenic activity in differentiated mouse 3T3L1 cells assessed as reduction in PGC1alpha expression at 50 uM measured on day 7 by Western blot analysis; type: functional, cell-based
# 3T3-L1 [8] = experiment: Inhibition of cell differentiation in mouse 3T3L1 cells assessed as reduction in pre-adipocyte differentiation into matured adipocytes at 50 uM incubated for 48 hrs under induction medium containing dehydrocorticosterone/cortisone followed by shifting to differentiation medium and measured after 7 days by Oil red O staining-based microscopic analysis; type: functional
# 3T3-L1 [9] = experiment: Cytotoxicity against mouse 3T3L1 preadipocytes up to 1 mM measured after 72 hrs under non-differentiating medium by celltiter-glo luminescent cell viability assay; type: cell-based; settings: 3t3-l1, 72 h
# [10] = Half life in human liver microsomes; type: ADME, Microsome
# 3T3-L1 [11] = experiment: Anti-adipogenic activity in differentiated mouse 3T3L1 cells assessed as reduction in PPARgamma mRNA expression at 50 to 100 uM measured after 2 to 7 days by SYBR green dye-based qRT-PCR analysis; type: functional, cell-based
# 3T3-L1 [12] = experiment: Anti-adipogenic activity in mouse 3T3L1 preadipocytes assessed as decrease in lipid accumulation at 50 uM measured after 3 days under induction medium containing dehydrocorticosterone/cortisone by Oil red O staining-based microscopic analysis; type: functional, cell-based
# [13] = Half life in simulated gastric fluid; type: ADME
# [14] = Volume of distribution at steady state in C57BL6 mouse at 5 to 30 mg/kg, iv by LC-MS analysis; type: ADME, organism-based; settings: in vivo
# 3T3-L1 [15] = experiment: Cell cycle arrest in mouse 3T3L1 cells up to 1 mM measured after 24 hrs under induction medium containing dehydrocorticosterone/cortisone by propidium iodide staining-based flow cytometry; type: ADME; settings: 3t3-l1, 24 h
# 3T3-L1 [16] = experiment: Anti-adipogenic activity in differentiated mouse 3T3L1 cells assessed as reduction in PGC1alpha expression at 50 uM measured on day 3 by Western blot analysis; type: functional, cell-based
# 3T3-L1 [17] = experiment: Anti-adipogenic activity in differentiated mouse 3T3L1 cells assessed as reduction in PPARgamma expression at 50 uM measured on day 7 by Western blot analysis; type: functional, cell-based
# 3T3-L1 [18] = experiment: Anti-adipogenic activity in differentiated mouse 3T3L1 cells assessed as reduction in FABP4 mRNA expression at 50 to 100 uM measured after 2 to 7 days by SYBR green dye-based qRT-PCR analysis relative to control; type: functional
# 3T3-L1 [19] = experiment: Anti-adipogenic activity in mouse 3T3L1 preadipocytes assessed as reduction in C/EBPalpha mRNA expression at 50 to 100 uM measured daily for 2 days under induction media containing dehydrocorticosterone/cortisone by SYBR green dye-based qRT-PCR analysis; type: functional, cell-based
# 3T3-L1 [20] = experiment: Anti-adipogenic activity in differentiated mouse 3T3L1 cells assessed as reduction in PPARgamma expression at 50 uM measured on day 3 by Western blot analysis; type: functional, cell-based
# 3T3-L1 [21] = experiment: Anti-adipogenic activity in differentiated mouse 3T3L1 cells assessed as reduction in FASN mRNA expression at 50 to 100 uM measured after 2 to 7 days by SYBR green dye-based qRT-PCR analysis relative to control; type: functional
# 3T3-L1 [22] = experiment: Anti-adipogenic activity in differentiated mouse 3T3L1 cells assessed as reduction in 11beta-HSD1 expression at 50 uM measured on day 7 by Western blot analysis; type: functional, cell-based
# [23] = Half life in mouse liver microsomes; type: ADME, Microsome
# 3T3-L1 [24] = experiment: Anti-adipogenic activity in mouse 3T3L1 preadipocytes assessed as reduction in C/EBPdelta mRNA expression at 50 to 100 uM measured daily for 2 days under induction media containing dehydrocorticosterone/cortisone by SYBR green dye-based qRT-PCR analysis; type: functional, cell-based
# Homo sapiens [25] = species: Homo sapiens; experiment: as §1, with “decrease” for “reduction”, “lipid accumulation” for “pre-adipocyte differentiation into matured adipocytes”; type: functional, cell-based
# [26] = target: 11-beta-hydroxysteroid dehydrogenase 1 (Homo sapiens, UniProt P28845); experiment: Inhibition of 11beta-HSD1 in human microsomes using [3H] cortisone as substrate by scintillation proximity assay
# [27] = target: T1, Peroxisome proliferator-activated receptor gamma (Homo sapiens) (UniProt P37231); experiment: Antagonist activity at human PPARgamma expressed in 293H cells assessed as reduction in rosiglitazone-induced transcriptional response at 0.002 to 4 uM preincubated for 30 mins followed by rosiglitazone addition and measured after 16 hrs by reporter gene-based FRET assay; type: cell-based
# T1 sequence (whole entry): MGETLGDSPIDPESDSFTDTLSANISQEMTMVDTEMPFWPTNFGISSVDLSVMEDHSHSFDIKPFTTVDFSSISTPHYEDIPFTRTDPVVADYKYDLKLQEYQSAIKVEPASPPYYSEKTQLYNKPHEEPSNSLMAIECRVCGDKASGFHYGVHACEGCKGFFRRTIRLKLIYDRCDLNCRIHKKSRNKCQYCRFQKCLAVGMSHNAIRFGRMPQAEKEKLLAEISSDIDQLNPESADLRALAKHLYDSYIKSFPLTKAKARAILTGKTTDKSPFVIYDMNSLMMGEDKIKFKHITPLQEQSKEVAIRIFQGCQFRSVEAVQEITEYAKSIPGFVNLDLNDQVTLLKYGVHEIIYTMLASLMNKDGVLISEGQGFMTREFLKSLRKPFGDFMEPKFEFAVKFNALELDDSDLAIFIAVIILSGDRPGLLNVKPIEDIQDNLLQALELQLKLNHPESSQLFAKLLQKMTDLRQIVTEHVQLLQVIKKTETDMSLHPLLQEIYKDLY
# 3T3-L1 [28] = experiment: Effect on total GR expression in differentiated mouse 3T3L1 cells at 50 uM measured on day 3 and 7 by Western blot analysis; type: ADME, cell-based; settings: 3t3-l1, 50 µM
# Homo sapiens [29] = experiment: as §1, with “subcutaneous” for “visceral”, “decrease” for “reduction”, “lipid accumulation” for “pre-adipocyte differentiation into matured adipocytes”; type: functional, cell-based
# [30] = Half life in human plasma; type: ADME, cell-free
# Sequence of 11-beta-hydroxysteroid dehydrogenase 1 (P28845 whole entry): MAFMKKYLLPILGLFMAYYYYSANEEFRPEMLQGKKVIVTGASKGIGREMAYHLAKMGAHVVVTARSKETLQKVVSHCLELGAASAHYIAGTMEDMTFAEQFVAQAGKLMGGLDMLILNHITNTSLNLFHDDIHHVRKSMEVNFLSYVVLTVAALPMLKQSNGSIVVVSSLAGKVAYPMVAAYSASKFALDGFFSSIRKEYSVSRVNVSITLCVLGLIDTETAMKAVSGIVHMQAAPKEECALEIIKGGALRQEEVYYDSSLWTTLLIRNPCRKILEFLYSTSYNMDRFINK
smiles,measurement,setting,value
CC1=CC[C@@]2(C[C@@H]1O)[C@@H](C(=O)O)CC[C@H]2C(C)C,Activity,3T3-L1 [1],Active
same,Activity,3T3-L1 [2],inactive
same,EC50,3T3-L1 [3],> 500 µM
same,Activity,Homo sapiens [4],Active
same,Activity,3T3-L1 [5],Active
same,Activity,3T3-L1 [6],Active
same,Activity,3T3-L1 [7],Active
same,inhibition,3T3-L1 [8],Active
same,Activity,3T3-L1 [9],Non-Toxic
same,t1/2,[10],1.18 h
same,Activity,3T3-L1 [11],Active
same,Activity,3T3-L1 [12],inactive
same,half-life,[13],< 2 h
same,Vdss,[14],0.247 L/kg
same,Activity,3T3-L1 [15],Non-Toxic
same,Activity,3T3-L1 [16],inactive
same,Activity,3T3-L1 [17],Active
same,fold change (FC),3T3-L1 [18],<10
same,Activity,3T3-L1 [19],Active
same,Activity,3T3-L1 [20],inactive
same,fold change (FC),3T3-L1 [21],<10
same,Activity,3T3-L1 [22],Active
same,t1/2,[23],1.33 h
same,Activity,3T3-L1 [24],Active
same,Activity,Homo sapiens [25],Active
same,IC50,[26],0.013 µM
same,Activity,[27],inactive
same,Activity,3T3-L1 [28],Non-Toxic
same,Activity,Homo sapiens [29],Active
same,half-life,[30],> 48 h
